Measured values: PMC7218169 (Frontiers in Immunology, 2020)
Read-outs that look alike come from different tables or passages of the source.

What was measured:
CD3+ T cells = format: in vivo, human; conditions: over the three RMD doses; increases 3 days after each dose, maintained up to 1 week after RMD3
Description: Activation of T cells was determined based upon HLA-DR expression on CD3^+ T cells. Cryopreserved PBMC were thawed, and 1,000,000 cells were stained with CD3 APC-Cy7, CD4 FITC, CD8 BV510 and HLA-DR PECy7 (BioLegend #344818, 300538, 301048, and 307616, respectively). Cells were collected on an LSRII instrument (BD), and data analyzed according to the gating criteria shown in Supplementary Figure 1 using FlowJo 10 software.

HIV-1 [1] = format: in vivo, human; conditions: ultrasensitive single copy assay, during RMD1−2−3
Description: To evaluate HIV-1 RNA below 20 copies/ml, 4–8 ml of plasma samples taken before (0 h) and at the end of each RMD infusion (4 h), at 8 and 24 h (+1 day) after RMD1, and 72 h (+3 days) and 7 days after RMD1−2−3 were ultracentrifugated at 170,000 g at 4°C for 30 min and viral RNA was extracted automatically using the m2000sp Abbot device. HIV-1 RNA copies were quantified using the Abbott Real-Time HIV-1 assay (Abbott Molecular Inc.) and in-house calibration curve sets as described ([38]). The limit of detection (2 HIV-1 RNA copies/mL) was calculated relative to the plasma volume.

[2] = 5 mg/m^2 BSA i.v. over 4 hours; for RMD-PK AUC1, Med: plasma, AUC0-inf non-compartmental from simulated individual concentrations
CD4+ T cells = conditions: median; 3 days after each RMD administration; not fully recovered by day 7 after RMD3
HIV-1 [3] = format: in vivo, human
[4] = tested on: histone H3 acetylation in lymphocytes; format: in vivo, human; conditions: peripheral lymphocytes
Description: The levels of histone H3 acetylation in lymphocytes (based on FSC/SCC scatter) were determined by flow cytometry from samples taken before (0 h) and at the end of each RMD infusion (RMD1−2−3) (4 h), at 8 and 24 h (+1 day) RMD1, and at 72 h (+3 days) and 7 days after (RMD1−2−3). Cryopreserverd PBMC were thawed 4 h before use, and 500,000 cells were blocked with 600 ul of PBS/10% FBS for 20 min and stained with polyclonal rabbit anti-acetyl histoneH3 (10 μg/ml, MerckMillipore #06–599) or normal rabbit serum (control stain, LifeTechnologies #10510) for 30 min. Cells were washed and subsequently incubated with donkey anti-rabbit IgG(H+L) (6 μg/mL, LifeTechnologies #A21206) for 30 min at room temperature in the dark. Cells were washed, re-suspended in 150 μl PBS and analyzed. ~50,000 events were acquired per sample. The median fluorescence intensity (MFI) for each sample was calculated by substracting the background MFI (isotype control stain) from the anti-acetyl histoneH3 stain.

[5] = tested on: early-treated HIV-1-infected individuals; conditions: in vivo

Compound: C/C=C1\NC(=O)[C@H]2CSSCC/C=C/[C@H](CC(=O)N[C@H](C(C)C)C(=O)N2)OC(=O)[C@H](C(C)C)NC1=O [RMD, Romidepsin]
- T-cell activation (proportion of CD3+/HLA-DR+ cells) (CD3+ T cells): increased in a progressive manner
- Kinetics of plasma HIV-1 RNA levels (HIV-1 [1]): did not follow a clear pattern
- RMD-PK AUC1, Med ([2]; MAP - Controllers (n=3)): 473.5
- RMD-PK AUC1, Med ([2]; MAP - Non Controllers (n=10)): 392.9
- RMD concentrations in plasma by 24 h after dosing ([2]; individual profiles simulated with population PK model, LC-MS/MS): nearly undetectable levels
- Transient decrease of CD4+ T-cell counts (CD4+ T cells): 248 cells/mm^3
- Individuals with increases in CA HIV-1 RNA above 2-fold (HIV-1 [3]; at any time point after RMD administrations): 80%
- HIV-1 transcription (cell-associated HIV-1 RNA) (HIV-1 [3]; peripheral CD4+ T cells, normalized to TBP, relative to pre-RMD1, more pronounced after RMD2 and RMD3): transiently increased
- Median increase of viral expression (CA HIV-1 RNA) at the end of each RMD infusion (HIV-1 [3]; without correction by housekeeping gene, relative to before RMD1, normalization beyond 4 hours): higher than 2.5 fold
- Time of return of acH3 to baseline values after each dose ([4]; flow cytometry): 3 days
- Histone H3 acetylation (acH3) during each RMD infusion ([4]; flow cytometry MFI, remained high during 4 h): increased rapidly
- AE recorded after RMD1−2−3 [5]: 204 AE
- Abdominal distension, Grade 1 n [5]: 4 n
- Abdominal distension, Grade 2 n [5]: 1 n
- Abdominal distension, Grade 3 n [5]: 0 n
- Abdominal distension, Grade 4 n [5]: 0 n
- Abdominal distension, Total n (%) [5]: 5 (33) n (%)
- Abdominal pain, Grade 1 n [5]: 5 n
- Abdominal pain, Grade 2 n [5]: 2 n
- Abdominal pain, Grade 3 n [5]: 0 n
- Abdominal pain, Grade 4 n [5]: 0 n
- Abdominal pain, Total n (%) [5]: 7 (47) n (%)
- Anorexia, Grade 1 n [5]: 8 n
- Anorexia, Grade 2 n [5]: 1 n
- Anorexia, Grade 3 n [5]: 0 n
- Anorexia, Grade 4 n [5]: 0 n
- Anorexia, Total n (%) [5]: 9 (60) n (%)
- Anxiety, Grade 1 n [5]: 0 n
- Anxiety, Grade 2 n [5]: 1 n
- Anxiety, Grade 3 n [5]: 0 n
- Anxiety, Grade 4 n [5]: 0 n
- Anxiety, Total n (%) [5]: 1 (7) n (%)
- Constipation, Grade 1 n [5]: 4 n
- Constipation, Grade 2 n [5]: 2 n
- Constipation, Grade 3 n [5]: 0 n
- Constipation, Grade 4 n [5]: 0 n
- Constipation, Total n (%) [5]: 6 (40) n (%)
- Dry mouth, Grade 1 n [5]: 1 n
- Dry mouth, Grade 2 n [5]: 0 n
- Dry mouth, Grade 3 n [5]: 0 n
- Dry mouth, Grade 4 n [5]: 0 n
- Dry mouth, Total n (%) [5]: 1 (7) n (%)
- ECG: ST-elevation, Grade 1 n [5]: 1 n
- ECG: ST-elevation, Grade 2 n [5]: 0 n
- ECG: ST-elevation, Grade 3 n [5]: 0 n
- ECG: ST-elevation, Grade 4 n [5]: 0 n
- ECG: ST-elevation, Total n (%) [5]: 1 (7) n (%)
- Fatigue, Grade 1 n [5]: 9 n
- Fatigue, Grade 2 n [5]: 5 n
- Fatigue, Grade 3 n [5]: 0 n
- Fatigue, Grade 4 n [5]: 0 n
- Fatigue, Total n (%) [5]: 14 (93) n (%)
- Grade 1-2 laboratory abnormalities related to RMD [5]: 22 n
- Grade 4 creatinine kinase elevation [5]: one
- Headache, Grade 1 n [5]: 9 n
- Headache, Grade 2 n [5]: 5 n
- Headache, Grade 3 n [5]: 0 n
- Headache, Grade 4 n [5]: 0 n
- Headache, Total n (%) [5]: 14 (93) n (%)
- Hypophosphatemia [5]: 8 events
- Hypotension, Grade 1 n [5]: 0 n
- Hypotension, Grade 2 n [5]: 1 n
- Hypotension, Grade 3 n [5]: 0 n
- Hypotension, Grade 4 n [5]: 0 n
- Hypotension, Total n (%) [5]: 1 (7) n (%)
- Individuals who vomited the days of RMD administration, percent [5]: 27%
- Libido decrease, Grade 1 n [5]: 0 n
- Libido decrease, Grade 2 n [5]: 1 n
- Libido decrease, Grade 3 n [5]: 0 n
- Libido decrease, Grade 4 n [5]: 0 n
- Libido decrease, Total n (%) [5]: 1 (7) n (%)
- Metallic taste, Grade 1 n [5]: 5 n
- Metallic taste, Grade 2 n [5]: 1 n
- Metallic taste, Grade 3 n [5]: 0 n
- Metallic taste, Grade 4 n [5]: 0 n
- Metallic taste, Total n (%) [5]: 6 (40) n (%)
- Myalgia, Grade 1 n [5]: 1 n
- Myalgia, Grade 2 n [5]: 1 n
- Myalgia, Grade 3 n [5]: 0 n
- Myalgia, Grade 4 n [5]: 0 n
- Myalgia, Total n (%) [5]: 2 (13) n (%)
- Nausea, Grade 1 n [5]: 4 n
- Nausea, Grade 2 n [5]: 7 n
- Nausea, Grade 3 n [5]: 0 n
- Nausea, Grade 4 n [5]: 0 n
- Nausea, Total n (%) [5]: 11 (73) n (%)
- Palpitations, Grade 1 n [5]: 3 n
- Palpitations, Grade 2 n [5]: 0 n
- Palpitations, Grade 3 n [5]: 0 n
- Palpitations, Grade 4 n [5]: 0 n
- Palpitations, Total n (%) [5]: 3 (20) n (%)
- Participants with grade 4 AE, sepsis by Shigella sonnei (SAE) [5]: One
- Rash, Grade 1 n [5]: 0 n
- Rash, Grade 2 n [5]: 2 n
- Rash, Grade 3 n [5]: 0 n
- Rash, Grade 4 n [5]: 0 n
- Rash, Total n (%) [5]: 2 (13) n (%)
- Sepsis by Shigella sonnei (SAE), Grade 1 n [5]: 0 n
- Sepsis by Shigella sonnei (SAE), Grade 2 n [5]: 0 n
- Sepsis by Shigella sonnei (SAE), Grade 3 n [5]: 0 n
- Sepsis by Shigella sonnei (SAE), Grade 4 n [5]: 1 n
- Sepsis by Shigella sonnei (SAE), Total n (%) [5]: 1 (7) n (%)
- Somnolence, Grade 1 n [5]: 1 n
- Somnolence, Grade 2 n [5]: 0 n
- Somnolence, Grade 3 n [5]: 0 n
- Somnolence, Grade 4 n [5]: 0 n
- Somnolence, Total n (%) [5]: 1 (7) n (%)
- Sweating, Grade 1 n [5]: 2 n
- Sweating, Grade 2 n [5]: 2 n
- Sweating, Grade 3 n [5]: 0 n
- Sweating, Grade 4 n [5]: 0 n
- Sweating, Total n (%) [5]: 4 (27) n (%)
- Thrombocytopenia [5]: 5 events
- Tolerability at the regimen and dose administered [5]: well-tolerated
- Vomits, Grade 1 n [5]: 4 n
- Vomits, Grade 2 n [5]: 0 n
- Vomits, Grade 3 n [5]: 0 n
- Vomits, Grade 4 n [5]: 0 n
- Vomits, Total n (%) [5]: 4 (27) n (%)
